Measured values taken from the supplement of paper PMC6045584.
± gives the standard deviation of the averaged measurements.

Columns and labels:
[1] = compound: COc1ccc(-c2cc3c(C)nc(N)nc3n([C@H]3CC[C@H](OCCO)CC3)c2=O)cn1; assay: surviving fraction relative to DMSO-only wells; higher = less growth inhibition; settings: exposure time: 5 days
In short: (§1)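 Lines were retained only if, across three screens, replicate Pearson r was >0.7 and median Z' was >0.3. Viability was measured as CellTiter-Glo luminescence and reported as surviving fraction relative to the median of DMSO-only wells. Readings followed 10 minutes at room temperature, after log-phase tumour cells seeded at 250–500 per well in 384-well plates had been exposed, from 24 hours after seeding, continuously for five days to inhibitors at 0.5, 1, 5, 10, 50, 100, 500 and 1000 nM.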

[2] = compound: C[C@H](CN(C)C)Oc1nc(Nc2cc3cccc(Cl)c3cn2)cnc1C#N; assay: as above; settings: exposure time: 5 days
In short: as §1

| Test System | surviving fraction ([1]; 0.5 nM) | surviving fraction ([1]; 1 nM) | surviving fraction ([1]; 5 nM) | surviving fraction ([1]; 10 nM) | surviving fraction ([1]; 50 nM) | surviving fraction ([1]; 100 nM) | surviving fraction ([1]; 500 nM) | surviving fraction ([1]; 1000 nM) | surviving fraction ([2]; 0.5 nM) | surviving fraction ([2]; 1 nM) | surviving fraction ([2]; 5 nM) | surviving fraction ([2]; 10 nM) | surviving fraction ([2]; 50 nM) | surviving fraction ([2]; 100 nM) | surviving fraction ([2]; 500 nM) | surviving fraction ([2]; 1000 nM) |
| --- | --- | --- | --- | --- | --- | --- | --- | --- | --- | --- | --- | --- | --- | --- | --- | --- |
| CAL51 BREAST | 0.988 ± 0.062 | 0.901 ± 0.047 | 0.943 ± 0.064 | 0.91 ± 0.053 | 0.731 ± 0.023 | 0.442 ± 0.035 | 0.123 ± 0.0027 | 0.0447 ± 0.0022 | 0.939 ± 0.051 | 0.961 ± 0.065 | 1.03 ± 0.025 | 0.922 ± 0.047 | 0.982 ± 0.062 | 0.855 ± 0.053 | 0.272 ± 0.049 | 0.123 ± 0.037 |
| HOS BONE | 0.992 ± 0.0078 | 0.983 ± 0.019 | 0.986 ± 0.012 | 0.906 ± 0.014 | 0.781 ± 0.021 | 0.618 ± 0.016 | 0.231 ± 0.012 | 0.178 ± 0.0092 | 1.01 ± 0.014 | 1.01 ± 0.024 | 0.996 ± 0.018 | 0.9907 ± 0.005 | 1.01 ± 0.035 | 1.002 ± 0.01 | 0.619 ± 0.023 | 0.16 ± 0.017 |
| HCC78 LUNG | 0.928 ± 0.31 | 0.845 ± 0.15 | 0.653 ± 0.27 | 0.588 ± 0.17 | 0.28 ± 0.048 | 0.104 ± 0.0093 | 0.022 ± 0.0044 | 0.0197 ± 0.0023 | 0.677 ± 0.09 | 0.908 ± 0.11 | 0.832 ± 0.17 | 0.984 ± 0.022 | 0.832 ± 0.15 | 0.919 ± 0.12 | 0.317 ± 0.1 | 0.131 ± 0.041 |
| HCC1806 BREAST | 1.08 ± 0.14 | 1.1 ± 0.042 | 1.12 ± 0.18 | 1.05 ± 0.094 | 0.993 ± 0.059 | 0.754 ± 0.1 | 0.366 ± 0.037 | 0.215 ± 0.0097 | 1.14 ± 0.095 | 1.09 ± 0.062 | 1.25 ± 0.2 | 1.13 ± 0.055 | 0.991 ± 0.068 | 0.633 ± 0.069 | 0.0587 ± 0.008 | 0.0547 ± 0.0029 |
| SUM149.B1*.S BREAST | 0.985 ± 0.03 | 1.02 ± 0.059 | 1.02 ± 0.032 | 0.995 ± 0.037 | 0.924 ± 0.011 | 0.823 ± 0.03 | 0.475 ± 0.014 | 0.339 ± 0.017 | 1.06 ± 0.066 | 1.06 ± 0.023 | 1.03 ± 0.055 | 1.09 ± 0.029 | 1.11 ± 0.029 | 1.05 ± 0.029 | 0.941 ± 0.026 | 0.492 ± 0.024 |
| T47D BREAST | 0.993 ± 0.043 | 0.975 ± 0.021 | 0.959 ± 0.02 | 0.913 ± 0.013 | 0.638 ± 0.018 | 0.414 ± 0.022 | 0.196 ± 0.0079 | 0.148 ± 0.0018 | 1.02 ± 0.043 | 1.06 ± 0.044 | 1.04 ± 0.027 | 1.03 ± 0.032 | 1.1 ± 0.046 | 1.14 ± 0.029 | 0.919 ± 0.063 | 0.766 ± 0.024 |
| SUM159 BREAST | 1.1 ± 0.16 | 1.12 ± 0.18 | 1.1 ± 0.17 | 1.1 ± 0.17 | 1.05 ± 0.074 | 0.839 ± 0.036 | 0.181 ± 0.014 | 0.119 ± 0.006 | 1.04 ± 0.038 | 1.06 ± 0.034 | 1.05 ± 0.03 | 1.05 ± 0.033 | 1.06 ± 0.024 | 1.05 ± 0.024 | 1.03 ± 0.02 | 0.986 ± 0.0078 |
| HCT15 LARGE INTESTINE | 0.981 ± 0.029 | 1.04 ± 0.051 | 1.01 ± 0.016 | 0.975 ± 0.021 | 0.76 ± 0.016 | 0.543 ± 0.04 | 0.16 ± 0.013 | 0.091 ± 0.0046 | 1.05 ± 0.022 | 1.04 ± 0.05 | 1.04 ± 0.022 | 1.05 ± 0.038 | 1.06 ± 0.051 | 1.06 ± 0.069 | 0.998 ± 0.057 | 0.799 ± 0.11 |
| SG32 HEADNECK | 1.08 ± 0.076 | 1.09 ± 0.38 | 1.02 ± 0.11 | 1.34 ± 0.31 | 1.04 ± 0.095 | 0.982 ± 0.14 | 0.432 ± 0.086 | 0.263 ± 0.044 | 1.17 ± 0.16 | 1.16 ± 0.24 | 1.06 ± 0.078 | 1.03 ± 0.1 | 1.05 ± 0.081 | 1.16 ± 0.23 | 0.748 ± 0.066 | 0.653 ± 0.11 |
| U2OS BONE | 0.98 ± 0.036 | 1.02 ± 0.019 | 0.9927 ± 0.0096 | 0.92 ± 0.05 | 0.794 ± 0.044 | 0.693 ± 0.029 | 0.277 ± 0.0042 | 0.202 ± 0.0051 | 1.04 ± 0.053 | 1 ± 0.039 | 1.02 ± 0.027 | 0.993 ± 0.081 | 1.05 ± 0.043 | 1.03 ± 0.025 | 0.277 ± 0.028 | 0.159 ± 0.013 |
| OS25HAL BONE | 0.95 ± 0.012 | 0.9753 ± 0.0029 | 0.9657 ± 0.0091 | 0.86 ± 0.041 | 0.603 ± 0.042 | 0.35 ± 0.066 | 0.13 ± 0.0092 | 0.0623 ± 0.0049 | 0.972 ± 0.013 | 0.965 ± 0.034 | 1.049 ± 0.0085 | 0.979 ± 0.024 | 1.07 ± 0.057 | 1.09 ± 0.014 | 0.615 ± 0.082 | 0.217 ± 0.023 |
